Holding throughout (test): relative viability (nuclei count vs DMSO), 5 days (fraction); higher = more cells survive
Compound in experiment [1]: Cc1ccc2nc(NCCN)c3ncc(C)n3c2c1 + CS(=O)(=O)CCNCc1ccc(-c2ccc3ncnc(Nc4ccc(OCc5cccc(F)c5)c(Cl)c4)c3c2)o1 [Lapatinib] (partner 2 µM)
In a few lines:
(§1)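 Lung cancer cell lines were seeded in 1536-well plates and dosed by pin tool the next day, with either a single drug or a fixed anchor-drug dose combined with five library-drug doses (not always all listed) spaced in √10 steps. Five days later, one step fixed the cells and stained their nuclei (final 0.05% Triton X-100, 1% formaldehyde, 1 ug/ml Hoechst), and nuclei were counted on 4× images. Relative viability is the nuclei count in treated wells divided by the count in vehicle wells, and each value is the median of duplicate plates.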

Compound in experiment [2]: Cc1ccc2nc(NCCN)c3ncc(C)n3c2c1 + Cc1nc(Nc2ncc(C(=O)Nc3c(C)cccc3Cl)s2)cc(N2CCN(CCO)CC2)n1 [Dasatinib] (partner 0.075 µM)
In outline: as §1

Compound in the experiment “Salubrinal + Crizotinib”: O=C(/C=C/c1ccccc1)NC(NC(=S)Nc1cccc2cccnc12)C(Cl)(Cl)Cl [Salubrinal] + C[C@@H](Oc1cc(-c2cnn(C3CCNCC3)c2)cnc1N)c1c(Cl)ccc(F)c1Cl [Crizotinib] (partner 1 µM)
In a few lines: as §1

Compound in the experiment “Salubrinal + Olaparib”: O=C(/C=C/c1ccccc1)NC(NC(=S)Nc1cccc2cccnc12)C(Cl)(Cl)Cl [Salubrinal] + O=C(c1cc(Cc2n[nH]c(=O)c3ccccc23)ccc1F)N1CCN(C(=O)C2CC2)CC1 [Olaparib] (partner 8 µM)
In outline: as §1

As for LXF-289, the relative viability in experiment [1] (first compound 0.04 µM) was determined as 0.956; in experiment [1] (first compound 0.1265 µM) it was 0.882; in experiment [1] (first compound 0.4 µM), 0.894; in experiment [1] (first compound 1.265 µM), 0.873; in experiment [1] (first compound 4 µM), 0.902; in experiment [2] (first compound 0.04 µM) it was 0.262. Also, the relative viability in experiment [2] (first compound 0.1265 µM) was 0.231; in experiment [2] (first compound 0.4 µM) it was 0.247; in experiment [2] (first compound 1.265 µM), 0.245; in experiment [2] (first compound 4 µM), 0.275; with Salubrinal + Crizotinib (first compound 0.08 µM), 0.869; in the experiment with Salubrinal + Crizotinib (first compound 0.253 µM) it was 0.73. The relative viability in the experiment with Salubrinal + Crizotinib (first compound 0.8 µM) came to 0.818; in the experiment with Salubrinal + Crizotinib (first compound 2.53 µM), 0.757; with Salubrinal + Crizotinib (first compound 8 µM) it was 0.8; with Salubrinal + Olaparib (first compound 0.08 µM), 1.27; with Salubrinal + Olaparib (first compound 0.253 µM), 0.918; with Salubrinal + Olaparib (first compound 0.8 µM), 1.25. Moreover, the relative viability with Salubrinal + Olaparib (first compound 2.53 µM) was 1.14; with Salubrinal + Olaparib (first compound 8 µM), 1.07.

Take NCI-H460: the relative viability in experiment [1] (first compound 0.04 µM) came to 0.999; in experiment [1] (first compound 0.1265 µM), 1; in experiment [1] (first compound 0.4 µM), 0.886; in experiment [1] (first compound 1.265 µM), 0.898; in experiment [1] (first compound 4 µM) it was 0.745; in experiment [2] (first compound 0.04 µM), 0.448. For the same cell line, the relative viability in experiment [2] (first compound 0.1265 µM) is 0.546; in experiment [2] (first compound 0.4 µM) it was 0.613; in experiment [2] (first compound 1.265 µM) it was 0.499; in experiment [2] (first compound 4 µM), 0.468; with Salubrinal + Crizotinib (first compound 0.08 µM) it was 1.18; with Salubrinal + Crizotinib (first compound 0.253 µM), 0.891. Further, the relative viability with Salubrinal + Crizotinib (first compound 0.8 µM) worked out at 0.843; with Salubrinal + Crizotinib (first compound 2.53 µM), 0.909; in the experiment with Salubrinal + Crizotinib (first compound 8 µM), 0.541; in the experiment with Salubrinal + Olaparib (first compound 0.08 µM), 0.541; in the experiment with Salubrinal + Olaparib (first compound 0.253 µM) it was 0.606; with Salubrinal + Olaparib (first compound 0.8 µM), 0.514. In addition, the relative viability with Salubrinal + Olaparib (first compound 2.53 µM) is 0.355; with Salubrinal + Olaparib (first compound 8 µM), 0.368.

As to NCI-H2009, the relative viability in experiment [1] (first compound 0.04 µM) was found to be 1.03; in experiment [1] (first compound 0.1265 µM), 0.958; in experiment [1] (first compound 0.4 µM), 0.88; in experiment [1] (first compound 1.265 µM), 0.928; in experiment [1] (first compound 4 µM) it was 0.836; in experiment [2] (first compound 0.04 µM) it was 0.391. Moreover, the relative viability is 0.284 in experiment [2] (first compound 0.1265 µM); 0.313 in experiment [2] (first compound 0.4 µM); 0.283 in experiment [2] (first compound 1.265 µM); 0.263 in experiment [2] (first compound 4 µM); 1.02 with Salubrinal + Crizotinib (first compound 0.08 µM); 0.972 with Salubrinal + Crizotinib (first compound 0.253 µM). Moreover, the relative viability came out at 0.955 with Salubrinal + Crizotinib (first compound 0.8 µM); 0.983 with Salubrinal + Crizotinib (first compound 2.53 µM); 0.976 with Salubrinal + Crizotinib (first compound 8 µM); 0.758 in the experiment with Salubrinal + Olaparib (first compound 0.08 µM); 0.581 with Salubrinal + Olaparib (first compound 0.253 µM); 0.547 in the experiment with Salubrinal + Olaparib (first compound 0.8 µM). For the same cell line, the figures for the relative viability in the experiment with Salubrinal + Olaparib (first compound 2.53 µM) and in the experiment with Salubrinal + Olaparib (first compound 8 µM) were 0.685 and 0.656, respectively.

With 201T, the relative viability in experiment [1] (first compound 0.04 µM) was 1.07; in experiment [1] (first compound 0.1265 µM), 1.03; in experiment [1] (first compound 0.4 µM) it was 0.989; in experiment [1] (first compound 1.265 µM), 1.17; in experiment [1] (first compound 4 µM) it was 0.98; in experiment [2] (first compound 0.04 µM), 0.56. Besides, the relative viability was 0.501 in experiment [2] (first compound 0.1265 µM); 0.587 in experiment [2] (first compound 0.4 µM); 0.524 in experiment [2] (first compound 1.265 µM); 0.483 in experiment [2] (first compound 4 µM); 0.997 in the experiment with Salubrinal + Crizotinib (first compound 0.08 µM); 1 with Salubrinal + Crizotinib (first compound 0.253 µM). Besides, the relative viability amounted to 1.05 with Salubrinal + Crizotinib (first compound 0.8 µM); 1.01 in the experiment with Salubrinal + Crizotinib (first compound 2.53 µM); 1.02 with Salubrinal + Crizotinib (first compound 8 µM); 0.866 with Salubrinal + Olaparib (first compound 0.08 µM); 0.61 with Salubrinal + Olaparib (first compound 0.253 µM); 0.861 in the experiment with Salubrinal + Olaparib (first compound 0.8 µM). Besides, the relative viability with Salubrinal + Olaparib (first compound 2.53 µM) was 0.809; in the experiment with Salubrinal + Olaparib (first compound 8 µM), 0.824.

The values above are taken from the supplement of paper PMC10307832.
